Data on 67 compounds can be found in patent publication US20150246938A1, “NOVEL OLEFIN DERIVATIVE” (SHIONOGI & CO., LTD., priority 2011, published 2015).

Broadly, the IC50 is the concentration at which inhibition is half-maximal.

The target in one assay is T1, recombinant human ACC2 (Homo sapiens, UniProt O00763).
T1 construct: a cDNA encoding human ACC2 (27-2458) was cloned from human kidney cDNA library (Clontech); His-tag (N); made in house; host or cells: Sf-9 insect cells (Bac-to-Bac baculovirus)
T1 sequence (O00763 27-2458): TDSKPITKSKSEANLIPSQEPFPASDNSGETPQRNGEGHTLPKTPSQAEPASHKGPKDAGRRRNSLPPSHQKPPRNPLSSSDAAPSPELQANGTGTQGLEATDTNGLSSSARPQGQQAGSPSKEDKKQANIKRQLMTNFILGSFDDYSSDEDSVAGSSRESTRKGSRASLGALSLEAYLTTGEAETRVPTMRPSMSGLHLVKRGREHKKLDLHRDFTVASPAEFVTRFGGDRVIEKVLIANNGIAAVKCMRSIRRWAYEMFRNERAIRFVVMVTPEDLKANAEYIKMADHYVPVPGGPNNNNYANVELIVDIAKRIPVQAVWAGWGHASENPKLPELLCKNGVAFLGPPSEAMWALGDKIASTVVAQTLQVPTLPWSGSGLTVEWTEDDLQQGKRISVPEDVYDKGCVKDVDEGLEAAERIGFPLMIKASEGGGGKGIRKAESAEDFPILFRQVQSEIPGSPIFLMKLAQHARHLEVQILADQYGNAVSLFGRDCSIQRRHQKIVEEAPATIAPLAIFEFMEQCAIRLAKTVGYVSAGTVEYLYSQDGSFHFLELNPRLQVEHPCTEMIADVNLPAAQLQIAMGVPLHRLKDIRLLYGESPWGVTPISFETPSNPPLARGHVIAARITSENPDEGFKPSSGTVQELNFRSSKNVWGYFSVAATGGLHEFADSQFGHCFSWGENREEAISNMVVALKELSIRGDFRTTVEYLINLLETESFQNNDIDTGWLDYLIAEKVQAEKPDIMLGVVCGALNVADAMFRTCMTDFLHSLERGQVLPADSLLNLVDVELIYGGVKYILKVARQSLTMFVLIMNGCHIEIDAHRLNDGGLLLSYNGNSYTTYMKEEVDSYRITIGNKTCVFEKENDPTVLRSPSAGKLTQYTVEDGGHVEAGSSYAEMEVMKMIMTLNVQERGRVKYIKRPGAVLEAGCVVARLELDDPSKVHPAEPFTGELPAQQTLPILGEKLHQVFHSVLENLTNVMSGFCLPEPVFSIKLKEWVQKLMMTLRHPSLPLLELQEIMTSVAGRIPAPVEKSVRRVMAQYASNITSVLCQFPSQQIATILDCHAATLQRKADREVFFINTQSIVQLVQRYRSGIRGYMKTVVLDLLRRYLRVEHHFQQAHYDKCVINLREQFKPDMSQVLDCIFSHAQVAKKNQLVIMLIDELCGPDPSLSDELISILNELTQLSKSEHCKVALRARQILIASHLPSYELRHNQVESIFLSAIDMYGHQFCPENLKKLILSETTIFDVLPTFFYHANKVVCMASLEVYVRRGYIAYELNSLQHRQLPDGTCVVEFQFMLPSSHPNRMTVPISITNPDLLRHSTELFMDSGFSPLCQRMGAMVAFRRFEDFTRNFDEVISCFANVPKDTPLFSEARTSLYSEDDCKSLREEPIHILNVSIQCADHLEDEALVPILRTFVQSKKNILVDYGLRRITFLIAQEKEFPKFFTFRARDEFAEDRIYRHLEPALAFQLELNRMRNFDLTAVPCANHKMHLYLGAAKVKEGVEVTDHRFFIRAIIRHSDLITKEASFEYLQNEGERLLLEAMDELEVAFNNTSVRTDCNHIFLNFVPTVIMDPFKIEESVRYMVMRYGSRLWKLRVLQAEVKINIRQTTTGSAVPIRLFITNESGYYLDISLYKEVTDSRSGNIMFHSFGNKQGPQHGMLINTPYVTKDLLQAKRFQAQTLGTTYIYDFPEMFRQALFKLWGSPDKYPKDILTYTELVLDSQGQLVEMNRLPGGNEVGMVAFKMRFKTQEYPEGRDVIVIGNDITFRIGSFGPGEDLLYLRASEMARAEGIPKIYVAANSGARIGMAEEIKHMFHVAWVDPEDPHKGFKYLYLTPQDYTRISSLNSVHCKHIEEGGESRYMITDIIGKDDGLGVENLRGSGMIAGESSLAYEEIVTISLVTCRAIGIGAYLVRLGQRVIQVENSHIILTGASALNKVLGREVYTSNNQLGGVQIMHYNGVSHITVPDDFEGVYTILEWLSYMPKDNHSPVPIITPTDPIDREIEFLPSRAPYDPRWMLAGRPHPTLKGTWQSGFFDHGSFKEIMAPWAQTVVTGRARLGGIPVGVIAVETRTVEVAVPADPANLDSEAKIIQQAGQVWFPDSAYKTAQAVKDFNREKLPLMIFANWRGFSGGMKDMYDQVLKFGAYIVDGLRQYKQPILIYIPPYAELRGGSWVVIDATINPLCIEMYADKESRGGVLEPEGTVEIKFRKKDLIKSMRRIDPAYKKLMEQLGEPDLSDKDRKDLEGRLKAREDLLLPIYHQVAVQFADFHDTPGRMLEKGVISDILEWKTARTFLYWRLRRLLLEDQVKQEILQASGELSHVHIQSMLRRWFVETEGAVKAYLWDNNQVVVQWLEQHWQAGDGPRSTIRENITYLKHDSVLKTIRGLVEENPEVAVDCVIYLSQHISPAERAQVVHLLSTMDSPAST
The experiment in a line: Measurement of inhibitory activity on human ACC2 (MALDI-TOF MS, acetyl CoA to malonyl CoA conversion). The format is biochemical.
Settings: not given
Regarding `CC(=O)N[C@@H](C)/C=C/c1cnc(Oc2cc(O)c(OCC3CC3)cc2Cl)nc1` [Compound I-406], the concentration for half-maximal inhibition (IC50) came out at 300 nM. For `CC(=O)N[C@@H](C)/C=C/c1ccc(Oc2ccc(C(C)(C)C(F)(F)F)cc2Cl)nc1` [Compound I-409], the IC50 amounted to 25 nM.

`COc1cc(Oc2ncc(/C=C/[C@H](C)NC(C)=O)cn2)c(Cl)cc1OCC1CC1` [Compound I-407]: the IC50 was 2100 nM.

Turning to `CCCc1ccc(Oc2ccc(/C=C/[C@H](C)NC(C)=O)cn2)c(-c2ccccc2)c1` [Compound I-408], the IC50 amounted to 2300 nM. Same read-out and setting: to `CC(=O)N[C@@H](C)/C=C/c1ccc(Oc2ccc3sc(C)nc3c2)nc1` [Compound I-424] belongs 140 nM.

Staying with this assay, now noted: inhibition activity on human ACC2, Table 79; read-out: IC50.
As to `C[C@@H](/C=C/c1cnc(Oc2ccc(OCC3CC3)cc2Cl)s1)NC(=O)CC(F)(F)F` [Compound I-82], the IC50 stood at 160 nM. Still for that read-out and setting: to `COc1cc(Cl)cc(Oc2ccc(/C=C/[C@H](C)NC(C)=O)cn2)c1` [Compound I-28] belongs 97 nM; to `CCOc1ccc(C(F)(F)c2ccc(/C=C/[C@H](C)NC(C)=O)cn2)c(Cl)c1` [Compound I-62], 310 nM. The same measure, in the same setting: to `CC(=O)N[C@@H](C)/C=C/c1ccc(Oc2ccc(OCC(C)C)cc2Cl)nc1` [Compound I-36] belongs 6.5 nM. As for `C[C@@H](/C=C/c1cnc(Oc2ccc(OCC3CC3)cc2Cl)s1)NC(=O)C1(C#N)CC1` [Compound I-97], the IC50 came to 120 nM. Turning to `CC(=O)N[C@@H](C)/C=C/c1cnn(Cc2c(Cl)cc(OCC3CC3)cc2Cl)c1` [Compound I-69], the IC50 turned out to be 470 nM. Consider `CC(=O)NCC(=O)N[C@@H](C)/C=C/c1cnc(Oc2ccc(OCC3CC3)cc2Cl)s1` [Compound I-78], for which the half-maximal inhibitory concentration (IC50) came to 550 nM.

The same assay, now with this note: inhibition activity on human ACC2, Table 80; read-out: IC50.
`CCCOc1ccc(Oc2ncc(/C=C/[C@H](C)NC(=O)c3ccnc(N)c3)s2)c(Cl)c1` [Compound I-163]: the half-inhibitory concentration (IC50) came out at 280 nM. On to `C[C@@H](/C=C/c1cnc(Oc2ccc(OCC3CC3)cc2Cl)s1)NC(=O)[C@H]1CNC(=O)O1` [Compound I-133], for which the IC50 came out at 920 nM. As for `CCN1Cc2ccc(C(=O)N[C@@H](C)/C=C/c3cnc(Oc4ccc(OCC5CC5)cc4Cl)s3)cc2C1=O` [Compound I-154], the concentration for half-maximal inhibition (IC50) worked out at 2700 nM.

As for `C[C@@H](/C=C/c1cnc(Oc2ccc(OCC3CC3)cc2Cl)s1)NC(=O)c1ccnc(OCCN2CCCC2)c1` [Compound I-242], the concentration for half-maximal inhibition (IC50) worked out at 16 nM. The same measure, in the same setting: to `C[C@@H](/C=C/c1cnc(Oc2ccc(OCC3CC3)cc2Cl)s1)NC(=O)CCO` [Compound I-125] belongs 320 nM. The same measure, in the same setting: to `C[C@@H](/C=C/c1cnc(Oc2ccc(OCC3CC3)cc2Cl)s1)NC(=O)c1cccc(C#N)c1` [Compound I-155] belongs 580 nM; to `C[C@@H](/C=C/c1cnc(Oc2ccc(OCC3CC3)cc2Cl)s1)NC(=O)c1ccnc(OCC(=O)O)c1` [Compound I-248], 580 nM. Still for that read-out and setting: to `C[C@@H](/C=C/c1cnc(Oc2ccc(OCC3CC3)cc2Cl)s1)NC(=O)C(F)F` [Compound I-177] belongs 18 nM; to `C[C@@H](/C=C/c1cnn(Cc2ccc(OCC3CC3)cc2Cl)c1)NC(=O)c1ccnc(C(N)=O)c1` [Compound I-235], 300 nM. As to `Cc1cc(N[C@@H](C)/C=C/c2cnn(Cc3ccc(OCC4CC4)cc3Cl)c2)no1` [Compound I-205], the half-inhibitory concentration (IC50) stood at 1600 nM. Same read-out and setting: to `CC(C)S(=O)(=O)NCCC(=O)N[C@@H](C)/C=C/c1cnc(Oc2ccc(OCC3CC3)cc2Cl)s1` [Compound I-134] belongs 1800 nM.

The assay is the same for the next values; noted with them: inhibition activity on human ACC2, Table 82; read-out: IC50.
In the case of `CC(=O)N[C@@H](C)/C=C/c1ccc(Oc2ccc(-c3ccccc3C)cc2Cl)nc1` [Compound I-342], the IC50 turned out to be 120 nM. As to `CC(=O)N[C@@H](C)/C=C/c1ccc(Oc2ccc(C3=CC(C)(C)OC(C)(C)C3)cc2Cl)nc1` [Compound I-354], the IC50 came to 170 nM.

With `CC(=O)N[C@@H](C)/C=C/c1ccc(Oc2ccc(CC(C)C)cc2Cl)nc1` [Compound I-363], the IC50 was 29 nM.

With `CC(=O)N[C@@H](C)/C=C/c1ccc(Oc2ccc(-c3cccc(C#N)c3)cc2Cl)nc1` [Compound I-346], the 50% inhibitory concentration (IC50) came out at 440 nM. Still for that read-out and setting: next, `CC(=O)N[C@@H](C)/C=C/c1ccc(Oc2ccc(-c3cccc(C)c3)cc2Cl)nc1` [Compound I-343]: 46 nM; `CCOc1ccc(NCc2ccc(/C=C/[C@H](C)NC(C)=O)cn2)cc1` [Compound I-356]: 5400 nM; `CC(=O)N[C@@H](C)/C=C/c1ccc(Oc2ccc(OS(=O)(=O)C(F)(F)F)cc2Cl)nc1` [Compound I-331]: 130 nM.

The assay is the same for the next values; noted with them: inhibition activity on human ACC2, Table 84; read-out: IC50.
For the compound `CC(=O)N[C@@H](C)/C=C/c1ccc(Oc2ccc(-c3ccccc3)c(Cl)c2)nc1` [Compound I-503], the IC50 came out at 5.1 nM. As to `CC(=O)N[C@@H](C)/C=C/c1ccc(Oc2ccc3nc(C(C)(C)C)sc3c2Cl)nc1` [Compound I-502], the IC50 was found to be 7.1 nM.

`CC(=O)N[C@@H](C)/C=C/c1ccc(Oc2ccc(Oc3ccncc3)cc2Cl)nc1` [Compound I-465]: the IC50 is 120 nM. Still for that read-out and setting: to `CC(=O)N[C@@H](C)/C=C/c1ccc(Oc2ccc3c(c2)C(=O)N(CC2CC2)CC3)nc1` [Compound I-518] belongs 800 nM; to `CC(=O)N[C@@H](C)/C=C/c1ccc(Oc2cnc(N3CCCCC3)nc2)nc1` [Compound I-499], 96 nM. Still for that read-out and setting: to `CC(=O)N[C@@H](C)/C=C/c1ccc(Oc2ccc(N3CCCCC3)nc2)nc1` [Compound I-516] belongs 170 nM. Same read-out and setting: next, `CC(=O)N[C@@H](C)/C=C/c1ccc(Oc2cc(C)c(C)cc2Cl)nc1` [Compound I-457]: 310 nM; `CC(=O)N[C@@H](C)/C=C/c1ccc(Oc2cnc(OCC3CC3)nc2)nc1` [Compound I-492]: 80 nM; `CC(=O)N[C@@H](C)/C=C/c1ccc(Oc2ccc(Oc3ccc([N+](=O)[O-])cc3)cc2Cl)nc1` [Compound I-451]: 25 nM.

Regarding `CC(=O)N[C@@H](C)/C=C/c1cnc(Oc2ccc(C(C)(C)C)cc2Cl)cn1` [Compound I-497], the IC50 came out at 51 nM. Turning to `CC(=O)N[C@@H](C)/C=C/c1ccc(Oc2ccc(Oc3cncs3)cc2Cl)nc1` [Compound I-453], the half-inhibitory concentration (IC50) is 730 nM.

As for `CC(=O)N[C@@H](C)/C=C/c1ccc(Oc2cc3c(cc2Cl)OC(C)(C)C3)nc1` [Compound I-507], the IC50 worked out at 43 nM. On the same count and under the same terms, to `CC(=O)N[C@@H](C)/C=C/c1ccc(Oc2cnc(N3CCC(F)(F)CC3)nc2)nc1` [Compound I-517] belongs 47 nM; to `CC(=O)N[C@@H](C)/C=C/c1ccc(Oc2ccc3c(c2)OC(F)(F)C(F)(F)O3)nc1` [Compound I-482], 8.1 nM. Same read-out and setting: to `CC(=O)N[C@@H](C)/C=C/c1ccc(Oc2cnc(N3CCC(F)CC3)nc2)nc1` [Compound I-520] belongs 75 nM; to `CC(=O)N[C@@H](C)/C=C/c1ccc(Oc2ccc3c(c2)CCCO3)nc1` [Compound I-444], 42 nM. For `CCOC(=O)c1cnc(Oc2ccc(Oc3ccc(/C=C/[C@H](C)NC(C)=O)cn3)c(Cl)c2)s1` [Compound I-441], the IC50 is 690 nM. On the same count and under the same terms, to `CC(=O)N[C@@H](C)/C=C/c1ccc(Oc2ccc3c(c2)CCN(CC2CC2)C3=O)nc1` [Compound I-468] belongs 90 nM; to `CC(=O)N[C@@H](C)/C=C/c1ccc(Oc2ccc(-c3ccc(C#N)cc3)cc2)nc1` [Compound I-515], 860 nM; to `CCCc1ccc(Cl)c(Oc2ccc(/C=C/[C@H](C)NC(C)=O)cn2)c1` [Compound I-475], 170 nM. In the case of `CC(=O)N[C@@H](C)/C=C/c1ccc(Oc2ccc(-c3ncc(F)cn3)cc2Cl)nc1` [Compound I-454], the IC50 came to 37 nM. On the same count and under the same terms, next, `CC(=O)N[C@@H](C)/C=C/c1ccc(Oc2ccc(C3(C)CC3(F)F)cc2Cl)nc1` (stereo partly shown) [Compound I-434]: 100 nM.

Staying with this assay, now noted: inhibition activity on human ACC2, untitled table (Table 81); read-out: IC50.
`CC(=O)N[C@@H](C)/C=C/c1cnn(Cc2cc(Cl)c(OCC3CC3)c(Cl)c2)c1` [Compound I-264]: the IC50 was determined as 840 nM. The same measure, in the same setting: to `CCNC(=O)c1cc(C(=O)N[C@@H](C)/C=C/c2cnn(Cc3ccc(Oc4ccccc4)cc3)c2)ccn1` [Compound I-307] belongs 48 nM.

Take `COCCOc1ccc(Oc2ccc(/C=C/[C@H](C)NC(C)=O)cn2)c(Cl)c1` [Compound I-296]: the IC50 stood at 110 nM. Still for that read-out and setting: next, `CC(=O)N[C@@H](C)/C=C/c1ccc(Oc2cncc(OCC3CC3)c2)nc1` [Compound I-293]: 1300 nM; `COc1cc(F)cc(Oc2ccc(/C=C/[C@H](C)NC(C)=O)cn2)c1` [Compound I-257]: 160 nM. Still for that read-out and setting: to `CC(=O)N[C@@H](C)/C=C/c1cnn(Cc2ccc(OCC3CC3)c(Cl)c2Cl)c1` [Compound I-262] belongs 660 nM. Same read-out and setting: to `CC(=O)N[C@@H](C)/C=C/c1ccc(Oc2cc(F)cc(OC(C)C)c2)nc1` [Compound I-277] belongs 230 nM. Consider `CCNC(=O)c1cc(C(=O)N[C@@H](C)/C=C/c2cnn(Cc3ccc(OC)cc3Cl)c2)ccn1` [Compound I-317], for which the half-inhibitory concentration (IC50) was determined as 350 nM. Same read-out and setting: to `CC(=O)N[C@@H](C)/C=C/c1ccc(Oc2cncc(OC(C)C)c2)nc1` [Compound I-301] belongs 1900 nM. `CC(=O)N[C@@H](C)/C=C/c1ccc(Oc2ccc(F)c(OC(C)C)c2)nc1` [Compound I-281]: the 50% inhibitory concentration (IC50) was determined as 130 nM. Still for that read-out and setting: to `CCOc1ccc(Oc2cnc(/C=C/[C@H](C)NC(C)=O)cn2)cc1Cl` [Compound I-299] belongs 38 nM.

Consider `CCNC(=O)c1cc(C(=O)N[C@@H](C)/C=C/c2cnn(Cc3c(C)cc(C)cc3C)c2)ccn1` [Compound I-315], for which the half-maximal inhibitory concentration (IC50) came out at 3900 nM.

For `CCOc1ccc(F)c(Oc2ccc(/C=C/[C@H](C)NC(C)=O)cn2)c1` [Compound I-278], the IC50 turned out to be 79 nM. Consider `CCN(CC)c1ccc(Oc2ccc(/C=C/[C@H](C)NC(C)=O)cn2)c(Cl)c1` [Compound I-288], for which the 50% inhibitory concentration (IC50) was 36 nM. Still for that read-out and setting: to `CC(=O)N[C@@H](C)/C=C/c1cnc(Oc2ccc(Br)c(Cl)c2)nc1` [Compound I-274] belongs 350 nM.
